In data set [1] the test system is U-87 MG cells. In words: Subcutaneous human glioblastoma U-87 MG tumor xenograft model. It counts as in vivo, athymic nude mice (BALB/c-nu/nu). As to conditions: HuL2G7 0.5 mg/kg i.v. days 12 and 18. As to the method:
The combination effect of HuL2G7 with Rapamycin was examined in human glioblastoma U-87 MG tumor xenograft model. Female athymic nude mice (BALB/c-nu/nu, 30 animals) were purchased from Charles River Laboratories (Kanagawa, Japan). Mice were housed in a barrier facility with 12-h light/dark cycles and provided with food and tap water ad libitum and maintained for three weeks. U-87 MG cells (2.5×10^6 in 100 μL) were suspended with 50% Matrigel (BD Biosciences) buffered with Hanks. balanced salt solution (Invitrogen Corp, Carlsbad, Calif., USA) and inoculated subcutaneously into the right-flank of each mouse. After the tumor xenografts were established, at day 12 after inoculation, mice with tumors (approximately 95-272 mm^3) were randomized into groups of 4 (n=6) based on tumor volumes so as to minimize variation in tumor volumes. Then each group was treated with vehicle, HuL2G7, Rapamycin, or both drugs. […] Tumor volumes were assessed by bilateral vernier caliper measurement at days 12, 15, 18, 22, and 26 after inoculation and calculated using the formula, length×width^2×½, where length was taken to be the longest diameter across the tumor and width the corresponding perpendicular. Tumor growth was evaluated by the following formula: T/C (%)=ΔT/ΔC×100, where ΔT and ΔC are changes in tumor volume for each treated and vehicle control group. […]

Data set [2] has as its target cMet receptor (Homo sapiens, UniProt P08581). As to conditions: read-out: Kd, high affinity binding site; cited from earlier work.
Data set [3] deals with heparin sulfate proteoglycans (HSPG). The following applies: read-out: Kd, low affinity binding site; cited from earlier work.

cMet receptor, sequence (P08581 25-1390): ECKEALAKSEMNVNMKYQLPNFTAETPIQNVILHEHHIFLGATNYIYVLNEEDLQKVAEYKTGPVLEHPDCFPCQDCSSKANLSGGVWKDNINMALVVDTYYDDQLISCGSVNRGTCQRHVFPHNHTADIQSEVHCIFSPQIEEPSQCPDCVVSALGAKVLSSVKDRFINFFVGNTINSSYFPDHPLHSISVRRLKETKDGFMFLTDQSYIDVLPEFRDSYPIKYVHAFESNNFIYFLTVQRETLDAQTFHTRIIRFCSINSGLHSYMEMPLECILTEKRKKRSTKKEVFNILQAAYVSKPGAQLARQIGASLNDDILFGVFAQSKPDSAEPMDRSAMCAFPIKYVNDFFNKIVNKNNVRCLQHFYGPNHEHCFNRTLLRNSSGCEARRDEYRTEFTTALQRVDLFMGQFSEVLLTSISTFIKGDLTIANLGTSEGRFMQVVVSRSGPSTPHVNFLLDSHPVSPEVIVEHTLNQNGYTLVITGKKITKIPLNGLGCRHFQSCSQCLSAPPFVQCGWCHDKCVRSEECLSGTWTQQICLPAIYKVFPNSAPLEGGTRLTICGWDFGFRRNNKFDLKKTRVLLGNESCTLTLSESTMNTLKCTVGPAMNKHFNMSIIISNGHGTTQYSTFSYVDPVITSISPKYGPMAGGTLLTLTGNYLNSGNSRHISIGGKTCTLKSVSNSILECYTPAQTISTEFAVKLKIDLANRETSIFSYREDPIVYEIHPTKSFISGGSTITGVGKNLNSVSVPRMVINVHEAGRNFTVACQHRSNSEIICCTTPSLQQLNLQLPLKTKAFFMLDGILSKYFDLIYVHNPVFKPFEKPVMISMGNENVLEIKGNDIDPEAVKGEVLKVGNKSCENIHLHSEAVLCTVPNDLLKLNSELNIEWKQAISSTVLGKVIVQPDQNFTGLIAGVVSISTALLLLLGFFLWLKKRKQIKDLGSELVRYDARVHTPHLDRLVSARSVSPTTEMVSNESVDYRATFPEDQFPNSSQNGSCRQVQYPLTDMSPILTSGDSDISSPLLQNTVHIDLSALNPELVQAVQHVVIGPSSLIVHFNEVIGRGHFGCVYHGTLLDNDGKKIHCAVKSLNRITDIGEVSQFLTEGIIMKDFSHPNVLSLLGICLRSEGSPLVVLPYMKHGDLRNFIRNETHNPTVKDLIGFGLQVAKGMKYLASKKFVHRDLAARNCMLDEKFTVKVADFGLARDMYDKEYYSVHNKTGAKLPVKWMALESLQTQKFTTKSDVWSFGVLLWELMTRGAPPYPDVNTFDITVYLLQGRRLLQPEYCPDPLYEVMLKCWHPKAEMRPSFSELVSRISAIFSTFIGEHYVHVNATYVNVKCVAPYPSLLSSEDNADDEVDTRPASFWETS

Consider `CO[C@H]1C[C@@H]2CC[C@@H](C)[C@@](O)(O2)C(=O)C(=O)N2CCCC[C@H]2C(=O)O[C@H]([C@H](C)C[C@@H]2CC[C@@H](O)[C@H](OC)C2)CC(=O)[C@H](C)/C=C(\C)[C@@H](O)[C@@H](OC)C(=O)[C@H](C)C[C@H](C)/C=C/C=C/C=C/1C` [rapamycin, reference compound], for which the “general observations of animals” value in data set [1] (Rapamycin 0.1 mg/kg i.p. days 12-26, or both) is recorded as “no abnormalities in general observations”. Moreover, in data set [1] (day 26, Rapamycin 0.1 mg/kg i.p. once-daily days 12-26), the “T/C (%)=ΔT/ΔC×100” value turned out to be 9.6%.
Regarding “HGF: Human Hepatocyte Growth Factor, 102 kDa heterodimeric polypeptide, ligand of cMet”, the Kd was 0.2 nM in data set [2] and 1 nM in data set [3].

Values taken from patent US20110189169A1, “COMBINATION OF HGF INHIBITOR AND PTEN AGONIST TO TREAT CANCER” (GALAXY BIOTECH, LLC, priority 2008, published 2011).
